Laboratory results published in patent US9139557B2, “Carboxamide compounds and their use as calpain inhibitors” (Abbott GmbH & Co. KG, priority 2006, dated 2015).

Key:
Type in all cases: biochemical
cathepsin K = target: T1, cathepsin K (Homo sapiens, UniProt P43235); experiment: Cathepsin K enzyme inhibition in vitro (kinetic fluorescence assay); settings: Ki(cathepsin K)/Ki(calpain) ratio
T1 construct: purchased Calbiochem 342001; host or cells: E. coli
T1 sequence (P43235 115-329): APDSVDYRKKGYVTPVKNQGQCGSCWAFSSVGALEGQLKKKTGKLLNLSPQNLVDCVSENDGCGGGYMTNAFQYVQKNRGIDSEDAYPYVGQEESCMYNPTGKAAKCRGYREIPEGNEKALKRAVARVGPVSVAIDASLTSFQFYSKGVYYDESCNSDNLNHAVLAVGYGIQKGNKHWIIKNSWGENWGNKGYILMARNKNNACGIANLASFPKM
Experimental: (§1) Testing for blockade of the corresponding enzymic activities was carried out by means of kinetic fluorescence assays (excitation 390 nm, emission 460 nm).
(§2) Apparent Ki values were calculated from the experimentally determined IC50 values by the Cheng-Prussoff relation assuming a reversible competitive enzyme inhibition. The Km values of the substrates used under the assay conditions indicated above were: 90 μM (Z-Phe-Arg-AMC, cathepsin B), 10 μM (Z-Gly-Pro-Arg-AMC, cathepsin K), 2 μM (Z-Phe-Arg-AMC, cathepsin L), and 30 μM (Z-Val-Val-Arg-AMC, cathepsin S).
(§3) The indicated Ki values are averages of the inhibition constants calculated on the basis of 2 to 4 independent dose-effect plots.
(§4) • 1. Calpain I: • 20 nM calpain-I—isolated from human erythrocytes (Calbiochem #208713), 100 μM Suc-Leu-Tyr-AMC (Bachem #1-1355) as substrate in buffer with 62 mM imidazole, 0.3 mM CaCl2, 0.10% CHAPS, 0.05% BSA, 1 mM DTT at pH 7.3 and room temperature. • 2. Cathepsin B: • 0.25 nM cathepsin B—isolated from human liver (Calbiochem #219362), 100 μM Z-Phe-Arg-AMC (Bachem #1-1160) as substrate 50 mM MES, 2 mM EDTA, 0.05% Brij 35, 2.5 mM L-cysteine, pH 6.0, room temperature. • 3. Cathepsin K: • 3 nM cathepsin K—activated from recombinant human procathepsin K from E. coli (Calbiochem #342001), 10 μM Z-Gly-Pro-Arg-AMC (Biomol #P-142) as substrate in 50 mM MES, 2 mM EDTA, 0.05% Brij 35, 2.5 mM L-cysteine, pH 6.0, room temperature. • 4. Cathepsin L: • 1 nM cathepsin L—isolated from human liver (Calbiochem #219402), 2 μM Z-Phe-Arg-AMC (Bachem #1-1160) as substrate in 50 mM MES, 2 mM EDTA, 0.05% Brij 35, 2.5 mM L-cysteine, pH 6.0, room temperature. • 5. Cathepsin S: • 0.5 nM recombinant human cathepsin S from E. coli (Calbiochem #219343), 20 μM Z-Val-Val-Arg-AMC (Bachem #1-1540) as substrate in 50 mM MES, 2 mM EDTA, 0.05% Brij 35, 2.5 mM L-cysteine, pH 6.0, room temperature.

cathepsin S = target: T2, cathepsin S (Homo sapiens, UniProt P25774); experiment: Cathepsin S enzyme inhibition in vitro (kinetic fluorescence assay); settings: Ki(cathepsin S)/Ki(calpain) ratio
T2 construct: purchased Calbiochem 219343; host or cells: E. coli
T2 sequence (P25774 115-331): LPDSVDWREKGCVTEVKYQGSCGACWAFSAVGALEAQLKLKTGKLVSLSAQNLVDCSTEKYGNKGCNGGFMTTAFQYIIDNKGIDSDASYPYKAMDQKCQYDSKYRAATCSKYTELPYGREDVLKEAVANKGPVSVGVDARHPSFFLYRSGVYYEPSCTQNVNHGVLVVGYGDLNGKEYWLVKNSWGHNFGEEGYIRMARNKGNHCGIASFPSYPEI
Experimental: as §1, §2, §3, §4

cathepsin B = target: T3, cathepsin B (Homo sapiens, UniProt P07858); experiment: Cathepsin B enzyme inhibition in vitro (kinetic fluorescence assay); settings: Ki(cathepsin B)/Ki(calpain) ratio
T3 construct: cathepsin B—isolated from human liver; purchased Calbiochem 219362; host or cells: human liver (tissue isolate)
Experimental: as §1, §2, §3, §4

cathepsin L = target: T4, cathepsin L (Homo sapiens, UniProt P07711); experiment: Cathepsin L enzyme inhibition in vitro (kinetic fluorescence assay); settings: Ki(cathepsin L)/Ki(calpain) ratio
T4 construct: cathepsin L—isolated from human liver; purchased Calbiochem 219402; host or cells: human liver (tissue isolate)
T4 sequence (P07711 114-333): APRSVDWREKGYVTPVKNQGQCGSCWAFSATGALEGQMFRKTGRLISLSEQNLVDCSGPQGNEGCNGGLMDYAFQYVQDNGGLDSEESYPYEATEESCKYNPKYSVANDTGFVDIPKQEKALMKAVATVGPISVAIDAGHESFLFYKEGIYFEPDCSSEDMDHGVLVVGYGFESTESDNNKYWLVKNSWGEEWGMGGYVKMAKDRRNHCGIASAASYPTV
Experimental: as §1, §2, §3, §4

Molecule | Sel cat. K (cathepsin K) | Sel cat. S (cathepsin S) | Sel cat. B (cathepsin B) | Sel cat. L (cathepsin L)
NC(=O)C(=O)C(Cc1ccccc1)NC(=O)c1cccnc1-n1ccc(-c2cccs2)n1 (centres unmarked) [Example 55, N-(3-Amino-1-benzyl-2,3-dioxopropyl)-2-[3-(2-thienyl)-1H-pyrazol-1-yl]nicotinamide] | + (+ means 10≦Ki(cathepsin K)/Ki(calpain)<30) | ++ (++ means a Ki(cathepsin S)/Ki(calpain) ratio of ≧100) | + (+ means 10≦Ki(cathepsin B)/Ki(calpain)<30) | ++ (++ means a Ki(cathepsin L)/Ki(calpain) ratio of ≧50)
NC(=O)C(=O)C(Cc1ccccc1)NC(=O)c1cc(Cl)cnc1-n1ccc(-c2ccc(N3CCOCC3)cc2)n1 (centres unmarked) [Example 31, N-(3-Amino-1-benzyl-2,3-dioxopropyl)-5-chloro-2-[3-(4-morpholin-4-ylphenyl)-1H-pyrazol-1-yl]nicotinamide] | + (+ means 10≦Ki(cathepsin K)/Ki(calpain)<30) | – | ++ (++ means a Ki(cathepsin B)/Ki(calpain) ratio of ≧30) | + (+ means 30≦Ki(cathepsin L)/Ki(calpain)<50)
NC(=O)C(=O)C(Cc1ccccc1)NC(=O)c1cccnc1-n1ccc(C2CCCCC2)n1 (centres unmarked) [Example 192, N-[3-Amino-2,3-dioxo-1-(phenylmethyl)propyl]-2-(3-cyclohexyl-1H-pyrazol-1-yl)pyridine-3-carboxamide] | + (+ means 10≦Ki(cathepsin K)/Ki(calpain)<30) | ++ (++ means a Ki(cathepsin S)/Ki(calpain) ratio of ≧100) | – | ++ (++ means a Ki(cathepsin L)/Ki(calpain) ratio of ≧50)
COc1ccc(OC)c(-c2ccn(-c3ncccc3C(=O)NC(Cc3ccccc3)C(=O)C(N)=O)n2)c1 (centres unmarked) [Example 151, N-[3-Amino-2,3-dioxo-1-(phenylmethyl)propyl]-2-{3-[2,5-bis(methyloxy)phenyl]-1H-pyrazol-1-yl}pyridine-3-carboxamide] | ++ (++ means a Ki(cathepsin K)/Ki(calpain) ratio of ≧30) | – | ++ (++ means a Ki(cathepsin B)/Ki(calpain) ratio of ≧30) | ++ (++ means a Ki(cathepsin L)/Ki(calpain) ratio of ≧50)
Cl.NC(=O)C(=O)C(Cc1ccccc1)NC(=O)c1cccnc1-n1ccc(-c2ccc(N3CCOCC3)cc2)n1 (centres unmarked) [Example 29, N-(3-Amino-1-benzyl-2,3-dioxopropyl)-2-[3-(4-morpholin-4-ylphenyl)-1H-pyrazol-1-yl]nicotinamide hydrochloride] | + (+ means 10≦Ki(cathepsin K)/Ki(calpain)<30) | ++ (++ means a Ki(cathepsin S)/Ki(calpain) ratio of ≧100) | – | ++ (++ means a Ki(cathepsin L)/Ki(calpain) ratio of ≧50)
NC(=O)C(=O)C(Cc1ccccc1)NC(=O)c1cccnc1-n1ccc(-c2cccc(N3CCCC3)c2)n1 (centres unmarked) [Example 74, N-(3-Amino-1-benzyl-2,3-dioxopropyl)-2-[3-(3-pyrrolidin-1-ylphenyl)-1H-pyrazol-1-yl]nicotinamide] | ++ (++ means a Ki(cathepsin K)/Ki(calpain) ratio of ≧30) | ++ (++ means a Ki(cathepsin S)/Ki(calpain) ratio of ≧100) | ++ (++ means a Ki(cathepsin B)/Ki(calpain) ratio of ≧30) | –
N#Cc1cnc(-n2ccc(-c3ccccc3)n2)c(C(=O)NC(Cc2ccccc2)C(=O)C(N)=O)c1 (centres unmarked) [Example 82, N-(3-Amino-1-benzyl-2,3-dioxopropyl)-5-cyano-2-(3-phenyl-1H-pyrazol-1-yl)nicotinamide] | ++ (++ means a Ki(cathepsin K)/Ki(calpain) ratio of ≧30) | – | ++ (++ means a Ki(cathepsin B)/Ki(calpain) ratio of ≧30) | ++ (++ means a Ki(cathepsin L)/Ki(calpain) ratio of ≧50)
NC(=O)C(=O)C(Cc1ccccc1)NC(=O)c1cc(Cl)cnc1-n1ccc(-c2ccccc2)n1 (centres unmarked) [Example 27, N-(3-Amino-1-benzyl-2,3-dioxopropyl)-5-chloro-2-(3-phenyl-1H-pyrazol-1-yl)nicotin-amide] | + (+ means 10≦Ki(cathepsin K)/Ki(calpain)<30) | – | ++ (++ means a Ki(cathepsin B)/Ki(calpain) ratio of ≧30) | + (+ means 30≦Ki(cathepsin L)/Ki(calpain)<50)
N-{3-Amino-1-[(4-fluorophenyl)methyl]-2,3-dioxopropyl}-2-[3-(2,3-dichlorophenyl)-1H-pyrazol-1-yl]pyridine-3-carboxamide [Example 161] | – | ++ (++ means a Ki(cathepsin S)/Ki(calpain) ratio of ≧100) | + (+ means 10≦Ki(cathepsin B)/Ki(calpain)<30) | + (+ means 30≦Ki(cathepsin L)/Ki(calpain)<50)
NC(=O)C(=O)C(CC1CCCCC1)NC(=O)c1cccnc1-n1ccc(-c2ccccc2)n1 (centres unmarked) [Example 66, N-[3-Amino-1-(cyclohexylmethyl)-2,3-dioxopropyl]-2-(3-phenyl-1H-pyrazol-1-yl)nicotinamide] | + (+ means 10≦Ki(cathepsin K)/Ki(calpain)<30) | ++ (++ means a Ki(cathepsin S)/Ki(calpain) ratio of ≧100) | – | + (+ means 30≦Ki(cathepsin L)/Ki(calpain)<50)
NC(=O)C(=O)C(Cc1cccs1)NC(=O)c1cccnc1-n1ccc(-c2ccccc2)n1 (centres unmarked) [Example 40, N-[3-Amino-2,3-dioxo-1-(2-thienylmethyl)propyl]-2-(3-phenyl-1H-pyrazol-1-yl)pyridine-3-carboxamide] | – | ++ (++ means a Ki(cathepsin S)/Ki(calpain) ratio of ≧100) | + (+ means 10≦Ki(cathepsin B)/Ki(calpain)<30) | ++ (++ means a Ki(cathepsin L)/Ki(calpain) ratio of ≧50)
N#Cc1cnc(-n2ccc(-c3ccccc3F)n2)c(C(=O)NC(Cc2ccccc2)C(=O)C(N)=O)c1 (centres unmarked) [Example 188, N-[3-Amino-2,3-dioxo-1-(phenylmethyl)propyl]-5-cyano-2-[3-(2-fluorophenyl)-1H-pyrazol-1-yl]pyridine-3-carboxamide] | ++ (++ means a Ki(cathepsin K)/Ki(calpain) ratio of ≧30) | – | – | ++ (++ means a Ki(cathepsin L)/Ki(calpain) ratio of ≧50)
CN1CCN(c2ccc(-c3ccn(-c4ncccc4C(=O)NC(Cc4ccccc4)C(=O)C(N)=O)n3)cc2)CC1 (centres unmarked) [Example 68, N-(3-Amino-1-benzyl-2,3-dioxopropyl)-2-{3-[4-(4-methylpiperazin-1-yl)phenyl]-1H-pyrazol-1-yl}nicotinamide] | + (+ means 10≦Ki(cathepsin K)/Ki(calpain)<30) | ++ (++ means a Ki(cathepsin S)/Ki(calpain) ratio of ≧100) | – | –
NC(=O)C(=O)C(Cc1ccccc1)NC(=O)c1cccnc1-n1ccc(-c2ccc3c(c2)CCO3)n1 (centres unmarked) [Example 75, N-(3-Amino-1-benzyl-2,3-dioxopropyl)-2-[3-(2,3-dihydrobenzo[b]furan-5-yl)-1H-pyrazol-1-yl]nicotinamide] | + (+ means 10≦Ki(cathepsin K)/Ki(calpain)<30) | ++ (++ means a Ki(cathepsin S)/Ki(calpain) ratio of ≧100) | – | ++ (++ means a Ki(cathepsin L)/Ki(calpain) ratio of ≧50)
NC(=O)C(=O)C(Cc1ccccc1)NC(=O)c1cccnc1-n1ccc(-c2cccc3cnccc23)n1 (centres unmarked) [Example 156, N-[3-Amino-2,3-dioxo-1-(phenylmethyl)propyl]-2-(3-isoquinolin-5-yl-1H-pyrazol-1-yl)pyridine-3-carboxamide] | – | ++ (++ means a Ki(cathepsin S)/Ki(calpain) ratio of ≧100) | + (+ means 10≦Ki(cathepsin B)/Ki(calpain)<30) | + (+ means 30≦Ki(cathepsin L)/Ki(calpain)<50)
